{"source": "paper PMC5993284", "about": "“Peptide inhibitors of the anaphase promoting-complex that cause sensitivity to microtubule poison” (PLoS ONE, 2018)", "molecules": {"B1": {"name": "PQ65: 65 amino acid residue peptide called PQ65 (Cdc20 169–232) (peptide, UniProt P26309 169-232, looked up, fragment)", "chain": "PPNASPISHLRAQTKIVFKQNVAEACGLDMNKRILQYMPEPPKCSSLRQKSYIMKKRTHYSYQQ"}}, "key": {"[1]": {"system": "budding yeast Saccharomyces cerevisiae cells", "assay": "Benomyl sensitivity upon over expression in vivo (colony numbers per plate)", "format": "cell-based", "conditions": "for benomyl sensitivity on over expression (in words): pGAL1-10 over expression with N-terminal NLS, 12.5 μg/mL benomyl, average colony numbers per plate, 5 replicates; for effect of over expression on colony number without benomyl (in words): pGAL1-10 over expression, galactose, no benomyl", "experimental": "For the production of high quality DNA for in vitro transcription/translation E. coli were grown in 50 mL LB containing 100 μg/mL ampicillin for 12–16 hours at 37 °C. Purified plasmid DNA, which was dissolved with 50 μL ddH2O or DEPC (diethyl pyrocarbonate)-treated water, was measured at OD260/280 and stored at -20 °C (Bioman, Inc., Taiwan). All mutant allele expression plasmids were constructed employing site-directed mutagenesis following the manufacturer’s protocol (Stratagene, USA). Yeast were cultured under standard conditions. For large-scale yeast cultures to purify APC/C, yeast were cultured overnight in 10 mL YPD medium (20 g Dextrose, 20 g peptone, and 10 g yeast extract per liter) at 30 °C. 1.5 L of YPD medium in two Fernbach flasks was inoculated with 1 mL overnight culture and supplemented with 100 μg/mL ampicillin and 100 μg/mL streptomycin to prevent bacterial growth. Cell cycle arrest, collection of yeast cells and yeast cell extractions were all performed as previously described.\nThere is a long-term interest in identifying APC/C inhibitors that give rise to sensitivity to microtubule poisons in vivo. To determine if a Cdc20 Mad2-binding motif peptide was sufficient to induce a microtubule poison sensitivity phenotype in vivo, the DQ36 and PQ65 peptides were over expressed under the control of a galactose inducible pGAL1-10 promoter that had been integrated as single copy into the yeast genome together with the peptide open reading frames (ORF). The expressed proteins were engineered to contain an N-terminal nuclear localization signal ([…]) along with a short amino acid ‘linker’ in order to target the nuclear pool of the APC/C because yeast undergo a closed mitosis without nuclear envelope breakdown. […] This phenotype was suppressed by mutating the yeast KILR-motif residues RILQY to AAAAA (Fig 7B) providing a direct correlation between our observed in vitro APC/C inhibition that requires the yeast KILR-motif RILQY residues and an in vivo microtubule poison sensitivity phenotype."}, "APC/C": {"system": "APC/C", "assay": "Biotinylated peptide pull-down of purified APC/C, Western blot", "format": "binding, Saccharomyces cerevisiae", "conditions": "20 μM biotinylated peptide, purified yeast APC/C, 1 h at 4 °C, streptavidin/Avidin beads, n = 3", "experimental": "For APC/C purification, the APC/C which contain Cdc16-TAP-tag was isolated from 2 mL arrested yeast lysate by 120 μL IgG sepharose 6 Fast Flow beads (GE Healthcare Life Sciences) and incubate for 2 h at 4 °C on a rotating wheel. Beads were collected washed with 5 mL of APC/C wash buffer (200 mM Hepes pH8.0, 150 mM NaCl, 10% glycerol). Beads were resuspended in 150 μL of APC/C wash buffer contain 17.6 units of AcTEV protease (Invitrogen, Carlsbad, CA) at 4°C for 3 h with pipetting every 20 minutes. The purified APC/C was collected in the flow-through.\nFor APC/C binding assays, 20 μM biotinylated peptides or 20 μM peptides only as a negative control were incubated with purified APC/C and 100 μL APC/C wash buffer which contains phosphatase inhibitors (200 mM Hepes pH 8.0, 150 mM NaCl, 10% glycerol, 10 mM NaF, 1 mM NaVO4, 5 mM Na-pyrophosphate, 10 mM 2-glycerol phosphate) for 1 h at 4 °C. The mixtures were applied to 120 μL streptavidin beads (Dynabeads MyOne Streptavidin T1, Invitrogen) for 30 min at 4 °C with gentle pipetting every 10 min. Beads were washed with 1 mL of PBST buffer (Phosphate buffer saline and 0.1% Tween 20) three times SDS-PAGE protein sample was added directly. For APC/C binding competition experiments, the biotinylated peptide and 10-fold excess non-biotinylated peptides were added to purified APC/C at same time.\nFree D-biotin in 10% DMSO was used for the control binding assays. For pre-coating APC/C with biotin, a modified APC/C purification was performed. 2 mL yeast lysate was incubated with 120 μL IgG Sepharose beads and additional 20.4 μM free biotin or non-biotin solvent as a positive control was added and samples were incubated for 2 h at 4 °C on a rotating wheel. Purified pre-coated APC/C was then removed from the IgG Sepharose following the standard purification procedure. 20 μM biotinylated peptides or 20 μM peptides as a negative control were incubated with pre-coated APC/C and 100 μL APC/C wash buffer which contain phosphatase inhibitors for 1 h at 4 °C. In addition, 20 μM biotinylated peptide was added and incubated with pre-coated APC/C in a non-biotin containing solvent as positive control. Pre-coated APC/C binding procedures were same as above. For pre-coating streptavidin beads with biotin, streptavidin beads were washed in the presence of 10.2 nmol/mL D-biotin in PBST buffer or non-biotin solvent as a positive control before use. Pre-coated streptavidin beads were incubated with purified APC/C-peptide complexes with an extra […] biotin for 30 minutes with gentle pipetting every 10 min at 4 °C.\nProteins were separated in SDS-PAGE gels and then were transferred to PVDF membrane. Blocking was performed by incubating samples in 20 mL PBST with 5% milk at 4 °C. Rabbit anti-tap (Thermo, CAB1001) was used as primary antibodies at a 1:1000 dilution and incubated for 2 hours at RT. Anti-rabbit HRP (Jackson, USA) was then used as secondary antibody at 1:5000 dilution and incubate for 1 hr at RT. Chemiluminescence signals were detected using an ImageQuant LAS 4000 (GE Healthcare Bio-Sciences, USA). For cell cycle timing Western blots anti-MYC and anti-Actin antibodies were employed (ABCAM, UK)."}, "[2]": {"system": "APC/C - co-factor Cdc20 interaction", "assay": "Co-factor Cdc20 binding to APC/C (35S-Cdc20, APC/C on IgG beads)", "set-up": "species or system Saccharomyces cerevisiae", "conditions": "220 μM peptide, 1 hour, n = 3, vs buffer only", "experimental": "One potential mechanism by which Cdc20-derived peptides and Tyc1 inhibit APC/C may be by blocking and/or disrupting the association between the co-factors Cdc20 and Cdh1 and the APC/C holo-enzyme. To test this hypothesis we produced radio-labeled full-length Cdc20 and Cdh1 co-factors by IVT/T and then incubated them with 220 μM Tyc1, DQ36 or PQ65 and APC/C that had been isolated from mitotic yeast extracts on IgG beads. Unbound peptide was washed away, and the amount of the remaining APC/C bound Cdc20 or Cdh1 was quantified. […] These observations indicate that Tyc1 and Mad2-binding motif peptides inhibit APC/C via a similar mechanism, leading to the disruption of the co-factor-APC/C interaction. This similar mechanism of action predicts that co-ever expression of Tyc1 and a Mad2-binding motif peptide in vivo would likely increase a cell’s sensitivity to microtubule poison.\nFig 14 Mad2-binding motif peptides and Tyc1 disrupt co-factor binding to APC/C and display an additive phenotype for microtubule poison sensitivity when co-ever expressed. A) ^35S-Methionine radio-labeled full-length Cdc20 or Cdh1 were made by IVT/T and pre-incubated with buffer only as a control, or Tyc1, DQ36 or PQ65 at a final concentration of 220 μM. […] The amount of APC/C-bound co-factor was measured by phosphor-imaging (n = 3). […]"}}, "note": "“Also recorded” adds a separate entry of the source. Ends that are not written are not given here. * marks the point of attachment. Biotin = O=C1N[C@H]2[C@H](CS[C@H]2CCCCC(=O)*)N1", "data": [{"molecule": "DQ36-mut1: DQ36-mut1 where all 5 RILQY residues were changed to alanine AAAAA (Biotin-DMNKAAAAAMPEPPKCSSLRQKSYIMKKRTHYSYQQ)", "values": [{"measurement": "benomyl sensitivity on over expression (in words)", "setting": "[1]", "value": "The benomyl sensitivity phenotype was not observed"}, {"measurement": "effect of over expression on colony number without benomyl (in words)", "setting": "[1]", "value": "no significant difference in colony numbers per plate in the absence of benomyl"}, {"measurement": "binding to APC/C (in words)", "setting": "APC/C", "value": "maintained the ability to pull-down APC/C"}]}, {"molecule": "B1", "values": [{"measurement": "benomyl sensitivity on over expression (in words)", "setting": "[1]", "value": "induced a significant sensitivity to benomyl; also recorded: leads to sensitivity to the microtubule poison benomyl"}, {"measurement": "effect of over expression on colony number without benomyl (in words)", "setting": "[1]", "value": "no change in colony number or colony morphology was observed; also recorded: no significant difference in colony numbers per plate in the absence of benomyl"}, {"measurement": "amount of APC/C bound co-factor Cdc20 (in words)", "setting": "[2]", "value": "caused a significant decrease in the amount of APC/C bound co-factor Cdc20 and Cdh1"}]}]}
